Measured values taken from PubChem BioAssay (NCI).
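Compound exposure: 48 hours, 5 concentrations, 96-well plates. GI50 marks 50% less growth. At the TGI there is no net growth.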

Columns and labels:
Test in all cases: inhibition of tumour cell growth, NCI panel, 48 h
CCRF-CEM leukemia = test system: CCRF-CEM leukemia
HL-60(TB) leukemia = test system: HL-60(TB) leukemia
OVCAR-4 ovarian = test system: OVCAR-4 ovarian
SF-268 CNS = test system: SF-268 CNS
SF-539 CNS = test system: SF-539 CNS
SK-MEL-2 melanoma = test system: SK-MEL-2 melanoma
SK-MEL-28 melanoma = test system: SK-MEL-28 melanoma
TK-10 renal = test system: TK-10 renal
UACC-257 melanoma = test system: UACC-257 melanoma
MDA-N = test system: MDA-N
T-47D breast = test system: T-47D breast
HS 578T breast = test system: HS 578T breast

| SMILES | TGI (CCRF-CEM leukemia) [µM] | TGI (HL-60(TB) leukemia) [µM] | TGI (OVCAR-4 ovarian) [µM] | TGI (SF-268 CNS) [µM] | TGI (SF-539 CNS) [µM] | TGI (SK-MEL-2 melanoma) [µM] | TGI (SK-MEL-28 melanoma) [µM] | TGI (TK-10 renal) [µM] | TGI (UACC-257 melanoma) [µM] | TGI (MDA-N) [µM] | TGI (T-47D breast) [µM] | TGI (HS 578T breast) [µM] | GI50 (OVCAR-4 ovarian) [µM] | GI50 (SK-MEL-2 melanoma) [µM] |
| --- | --- | --- | --- | --- | --- | --- | --- | --- | --- | --- | --- | --- | --- | --- |
| COc1cc2c(cc1O)C1C(O)C(O)C=C3CCN(C2)C31 (stereo not given) | 72.6 | 7.53 | 4.84 | 10.5 | 4.68 | 5.74 | 13.9 | 11.7 | 12.2 |  |  |  |  |  |
| CCCC(O)C(NC(=O)CCl)C(=O)O (stereo not given) | > 100 | > 100 | > 100 | > 100 | > 100 | > 100 | > 100 |  | > 100 |  |  |  |  |  |
| O=C1C[C@H]2[C@@H](O1)[C@@H](O)CN1C(=O)c3ccccc3[C@H]21 | > 100 |  | > 100 | > 100 | > 100 | > 100 | > 100 | > 100 | > 100 | > 100 | > 100 |  |  |  |
| COc1ccc(C(O)c2nccn2C)c(OC)c1 (stereo not given) | > 100 | > 100 | > 100 | > 100 | > 100 | > 100 | > 100 | > 100 | > 100 | > 100 |  |  |  |  |
| C#CCN(CC#C)C(=O)C(=O)c1c[nH]c2ccc(OC)cc12 | 43.1 | 20.5 |  | > 100 | 29.2 |  | 31 | 34.3 | 34 |  | 83.5 | 37.6 |  |  |
| Cc1c(CNc2ccc(C(=O)NC(CC(=O)O)C(=O)O)cc2)ccc2nc(N)nc(N)c12 (stereo not given) |  | > 1000 | > 1000 | > 1000 | > 1000 | > 1000 |  |  | > 1000 | > 1000 |  | > 1000 | > 1000 | > 1000 |
| CSc1nncc2[nH]c(C)nc12 | > 100 | > 100 | > 100 |  | > 100 | > 100 | > 100 | > 100 | > 100 | > 100 | > 100 |  |  |  |
| COC(=O)C1C=CN(N(C)C)C2=C1C(=O)c1c(O)cccc1C2=O (stereo not given) | 5.04 |  | 5.57 | 17.3 |  | 7.81 | 3.87 | 15 | 2.8 |  | 6.45 | 7.58 |  |  |
| COc1cc(/C=C/C(=O)O)ccc1C(=O)OCc1ccccc1 | > 100 | > 100 | > 100 | > 100 | > 100 | > 100 | > 100 |  | > 100 |  |  |  |  |  |
| CCc1nc2ccc(N=NN(C)C)cc2[nH]1 | > 100 |  | > 100 | > 100 |  | > 100 | > 100 | > 100 | > 100 | > 100 | > 100 | > 100 |  |  |
| CN1C(=O)C(CC=O)(C(C)(C)C)c2ccccc21 (stereo not given) | > 100 | > 100 | > 100 | > 100 |  | > 100 | > 100 |  | > 100 | > 100 | > 100 | > 100 |  |  |
| CC(C)=CCc1c(O)ccc2ccc(=O)oc12 | > 100 | > 80.6 | > 100 | > 100 | > 31.6 | > 100 | > 100 |  | 84 |  |  |  |  |  |
| CC1(C)OC2C(O)CN3CCS[C@H]3C2O1 (stereo not given in full) | > 100 | > 100 | > 100 | > 100 |  | > 100 | > 100 | > 100 | > 100 |  | > 100 | > 100 |  |  |
| CCCCCC(/C=C/C1CCC(=O)C1CC#C[Si](C)(C)C)OCc1ccccc1 (stereo not given) | 17.2 |  | > 71.8 | 29.4 | 46.2 | 35 | > 58 | 60.5 | 39.6 | 42.6 | 85.1 | 39.6 |  |  |
| CC(C)(C)c1cc(C(=O)/C=C/C=C/c2ccccc2)cc(C(C)(C)C)c1O | 15.5 | 8.88 | > 100 | > 74 | 33.6 | 34.5 | > 100 | 59.2 | 25.4 |  | > 100 | > 100 |  |  |
| CC(C)(C)c1cc(C(CO)OCCOCCO)cc(C(C)(C)C)c1O (stereo not given) | > 100 |  | > 100 | > 100 | > 100 | > 100 | > 100 | > 100 | > 100 | > 100 | > 100 | > 100 |  |  |
| O=C(NS(=O)(=O)OCC(Cl)(Cl)Cl)SCCC(F)(F)C(F)(F)C(F)(F)C(F)(F)C(F)(F)C(F)(F)F | 44.5 | 51.2 | 31.8 | > 100 | 34.5 | 66.8 | 55.7 | 62.6 | > 100 |  | 98.4 | 42.1 |  |  |
